Measurements taken from US4587340A, “Biopterin analogs” (Burroughs Wellcome Co., priority 1984, dated 1986).
Values belong to the molecule of their own block, whether it stands above or below them.

Tests used:
[1] = molecular target: T1, Phenylalanine hydroxylase (Rattus norvegicus, UniProt P04176); assay: Phenylalanine hydroxylase cofactor assay; type: biochemical; settings: for Phenylalanine hydroxylase Vmax: tetrahydrobiopterin = 100
T1 construct: Phenylalanine hydroxylase was prepared from rat liver using hydrophobic chromatography; from tissue; host or cells: rat liver
T1 sequence (P04176 1-453): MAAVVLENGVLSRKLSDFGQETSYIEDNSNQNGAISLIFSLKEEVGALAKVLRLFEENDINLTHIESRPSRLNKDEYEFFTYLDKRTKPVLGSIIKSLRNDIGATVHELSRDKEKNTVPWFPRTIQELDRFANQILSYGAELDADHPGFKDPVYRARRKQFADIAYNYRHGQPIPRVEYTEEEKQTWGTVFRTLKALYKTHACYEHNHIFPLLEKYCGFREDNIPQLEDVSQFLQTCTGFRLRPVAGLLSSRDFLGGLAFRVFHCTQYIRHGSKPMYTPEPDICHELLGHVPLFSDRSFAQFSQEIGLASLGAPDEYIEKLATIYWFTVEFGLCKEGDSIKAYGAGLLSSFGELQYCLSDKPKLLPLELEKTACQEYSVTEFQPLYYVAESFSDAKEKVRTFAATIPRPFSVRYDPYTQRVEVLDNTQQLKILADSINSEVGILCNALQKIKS

[2] = molecular target: T2, Tryptophan hydroxylase (Rattus norvegicus, UniProt Q8CGU9); assay: Tryptophan hydroxylase cofactor assay; type: biochemical; settings: for Tryptophan hydroxylase Vmax: tetrahydrobiopterin = 100; for Activity for tryptophan hydroxylase: in words
T2 construct: The preparation of tryptophan hydroxylase was a crude 30,000xg supernatant; from tissue
T2 sequence (Q8CGU9 1-485): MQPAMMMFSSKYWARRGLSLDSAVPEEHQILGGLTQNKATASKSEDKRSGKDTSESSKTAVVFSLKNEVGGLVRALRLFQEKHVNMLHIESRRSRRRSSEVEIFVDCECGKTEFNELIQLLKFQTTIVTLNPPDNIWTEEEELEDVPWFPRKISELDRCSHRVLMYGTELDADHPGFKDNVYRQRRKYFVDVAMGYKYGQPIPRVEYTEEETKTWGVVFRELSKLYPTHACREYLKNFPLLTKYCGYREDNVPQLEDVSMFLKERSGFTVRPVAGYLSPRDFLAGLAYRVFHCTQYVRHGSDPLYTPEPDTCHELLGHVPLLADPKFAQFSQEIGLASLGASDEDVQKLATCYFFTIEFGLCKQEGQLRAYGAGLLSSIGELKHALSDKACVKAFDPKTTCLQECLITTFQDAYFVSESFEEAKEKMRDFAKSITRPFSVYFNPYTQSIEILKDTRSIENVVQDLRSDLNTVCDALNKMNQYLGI
Protocol: Tryptophan hydroxylase was assayed according to a modification of the method of Renson J., et al (Biochem. Biophys. Acta 25: 504 (1966)).

[3] = molecular target: T3, bovine liver DHFR (Bos taurus, UniProt P00376); assay: Dihydrofolate reductase assay; type: biochemical; settings: for Dihydrofolate reductase V: 7,8-dihydro form of the pterin, 7,8-dihydrobiopterin = 100
T3 construct: from tissue; host or cells: bovine liver
T3 sequence (P00376 1-187): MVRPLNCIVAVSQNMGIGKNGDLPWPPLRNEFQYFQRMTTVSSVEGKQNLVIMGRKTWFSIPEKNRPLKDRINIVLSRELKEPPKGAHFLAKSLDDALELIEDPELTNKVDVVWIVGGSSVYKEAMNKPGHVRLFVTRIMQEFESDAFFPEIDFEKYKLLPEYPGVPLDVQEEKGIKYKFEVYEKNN
Protocol: These assays were carried out on the 7,8-dihydropterin analogs of the compounds of formula I which were tetrahydropterins. The 7,8-dihydropterins were obtained commercially (in the case of dihydrobiopterin) or synthesized from the corresponding compound of formula I. Synthesis of 7,8-dihydropterins involved the combination of 0.27 μmole of a compound of formula I, 20 μg of horseradish peroxidase, 0.6 μmole of hydrogen peroxide in 0.1 ml of 0.5M potassium phosphate buffer, pH 7.5. After 3 min at room temperature, 10 μg of bovine liver catalase was added. The production of the 7,8-dihydropterin was verified by U.V. spectroscopy.
The assay was carried out with bovine liver DHFR using a modification of the method of Bailey and Ayling (J. Biol. Chem., 253, 1598 (1978)) where the desired dihydropterin replaced dihydrobiopterin, and the HPLC system used consisted of an anaerobic 0.1M acetic acid (with or without 10% acetonitrite) solvent on a 25 cm×4.6 mm Dupont TMS-Zorbax column. In our hands, dihydrobiopterin is reduced at a rate 2.5% that of the natural substrate dihydrofolate.

[4] = molecular target: Tyrosine hydroxylase (Homo sapiens, UniProt P07101); assay: Tyrosine hydroxylase cofactor assay; type: biochemical
Protocol: Tyrosine hydroxylase was partially purified through a 25-45% ammonium sulfate fraction. […] The enzyme was assayed by a modification of the method of Nagatsu, T., Levitt, M., and Udenfriend, S. (Anal. Biochem. 9, 122, (1964)) where the Dowex chromatography step was replaced by a charcoal extraction.

[5] = molecular target: T4, Dihydropteridine reductase (Homo sapiens, UniProt P09417); assay: Dihydropteridine reductase assay; type: biochemical; settings: quinonoid dihydro form; biopterin form = 100
T4 sequence (P09417 1-244): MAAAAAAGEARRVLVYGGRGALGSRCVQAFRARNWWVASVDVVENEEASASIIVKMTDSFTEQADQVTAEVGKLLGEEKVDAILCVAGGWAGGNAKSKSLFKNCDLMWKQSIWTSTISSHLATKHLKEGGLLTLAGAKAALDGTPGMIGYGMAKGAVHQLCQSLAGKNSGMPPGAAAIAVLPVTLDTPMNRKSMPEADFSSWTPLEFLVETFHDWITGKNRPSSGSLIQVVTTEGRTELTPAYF
Protocol: Dihydropteridine reductase was assayed by the method of Craine, et al., (J. Biol. Chem., 247, 6082 (1972)).

[6] = background statement; cited from earlier work
[7] = background statement; cited from earlier work; remark: listed apart in the source
[8] = tested on: striatal dopamine synthesis, noradrenaline synthesis in peripheral nerves; settings: administration of BH4; cited from earlier work
[9] = tested on: Parkinson's disease; settings: BH4 administration; cited from earlier work
[10] = tested on: depression; settings: several patients; cited from earlier work
[11] = tested on: atypical PKU; settings: large quantities; cited from earlier work

Tyrosine hydroxylase, sequence (P07101 whole entry): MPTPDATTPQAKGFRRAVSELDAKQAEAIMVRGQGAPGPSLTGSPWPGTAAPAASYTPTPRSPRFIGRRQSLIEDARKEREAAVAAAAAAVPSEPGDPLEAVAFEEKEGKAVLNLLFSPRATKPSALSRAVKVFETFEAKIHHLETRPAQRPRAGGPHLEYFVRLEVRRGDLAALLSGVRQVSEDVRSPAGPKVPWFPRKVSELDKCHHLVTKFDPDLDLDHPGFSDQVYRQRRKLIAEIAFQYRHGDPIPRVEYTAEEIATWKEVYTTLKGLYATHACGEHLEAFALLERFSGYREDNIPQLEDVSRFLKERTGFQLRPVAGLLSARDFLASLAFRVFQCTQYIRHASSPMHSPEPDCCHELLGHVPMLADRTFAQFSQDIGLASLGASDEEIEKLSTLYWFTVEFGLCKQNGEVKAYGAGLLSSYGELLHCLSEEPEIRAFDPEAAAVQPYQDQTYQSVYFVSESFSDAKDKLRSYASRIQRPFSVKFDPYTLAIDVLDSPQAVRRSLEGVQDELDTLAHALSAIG

Compound: CCCCOCC1CNc2nc(N)[nH]c(=O)c2N1 (racemic) [R=C4 H9, (+-)-2-Amino-5,6,7,8-tetrahydro-6-n-butoxymethyl-4(3H)-pteridinone]
- Specificity for tyrosine hydroxylase ([4]; versus tryptophan and phenylalanine hydroxylases): greatest specificity
- Activity for phenylalanine hydroxylase ([1]; in words): successively less active
- Activity for tryptophan hydroxylase [2]: successively less active

Compound: CC(O)C(O)C1=Nc2c(nc(N)[nH]c2=O)NC1 (stereo not drawn) [7,8-Dihydrobiopterin]
- Rate of reduction by DHFR relative to dihydrofolate, the natural substrate ([3]; bovine liver DHFR): 2.5%

Compound: C[C@H](O)[C@H](O)[C@H]1CNc2nc(N)[nH]c(=O)c2N1 [Tetrahydrobiopterin]
- Specific activity of tyrosine hydroxylase preparation with the cofactor ([4]; 25-45% ammonium sulfate fraction): 4.0 nmole/mg protein (min)
- Tyrosine hydroxylase Vmax ([4]; tetrahydrobiopterin = 100): 100%
- Specific activity of phenylalanine hydroxylase with the co-factor ([1]; 37°, rat liver enzyme): 1.0 μmol/mg protein per minute
- Substrate inhibition of phenylalanine hydroxylase by large amounts of phenylalanine ([1]; in words): large amounts of phenylalanine inhibit phenylalanine hydroxylase
- Phenylalanine hydroxylase Vmax [1]: 100%
- Specific activity of tryptophan hydroxylase with the cofactor ([2]; 37°, crude 30,000xg supernatant): approximately 100 pmol product per milligram protein per minute
- Tryptophan hydroxylase Vmax [2]: 100%
- Dihydropteridine reductase Vmax [5]: 100%
- Dihydrofolate reductase V [3]: 100%
- Brain penetration [6]: penetrates brain poorly
- Stability [7]: unstable
- Noradrenaline synthesis in peripheral nerves [8]: nearly double
- Striatal dopamine synthesis [8]: nearly double
- Symptoms of Parkinson's disease [9]: improve the symptoms of Parkinson's disease
- Symptoms of depression [10]: improve the symptoms of depression
- Treatment of atypical PKU [11]: successfully treated

Now from value to molecule:

- Phenylalanine hydroxylase Vmax [1]: 79%
- Tryptophan hydroxylase Vmax [2]: 54%
- Dihydrofolate reductase V [3]: 800%
Compound: COCC1CNc2nc(N)[nH]c(=O)c2N1 (racemic) [6-Methoxymethyl-tetrahydropterin, (+-)-2-Amino-5,6,7,8-tetrahydro-6-methoxymethyl-4(3H)-pteridinone]

- Activity for tyrosine hydroxylase ([4]; in words): active
- Activity for phenylalanine hydroxylase ([1]; in words): active
- Activity for tryptophan hydroxylase [2]: active
Compound: CCOCC1CNc2nc(N)[nH]c(=O)c2N1 (racemic) [R=C2 H5, (+-)-2-Amino-5,6,7,8-tetrahydro-6-ethoxymethyl-4(3H)-pteridinone]

- Activity for phenylalanine hydroxylase ([1]; in words): successively less active
- Activity for tryptophan hydroxylase [2]: successively less active
Compound: CCCCCCCCOCC1CNc2nc(N)[nH]c(=O)c2N1 (stereo not drawn) [C8 H17]

- Activity for phenylalanine hydroxylase ([1]; in words): successively less active
- Activity for tryptophan hydroxylase [2]: successively less active
Compound: CCCOCC1CNc2nc(N)[nH]c(=O)c2N1 (stereo not drawn) [R=C3 H7]
